The target in test [1] is T1, FRA1:JUN interaction in MDA-MB231 cells (Homo sapiens, UniProt P05412+P15407).
T1 construct: endogenous in cells; host or cells: MDA-MB231
The test can be described thus: Assay 3A isPLA assay, FRA1:JUN. The class given is cell-based. As to conditions: 10 μM. The procedure:
FIG. 4: A) Endogenous MYC:MAX (upper panel) and FRA1:JUN (lower panel) interactions as visualized as fluorescent red dots by isPLA. Nuclei were counterstained with DAPI (blue). Cells were treated with 10 μM of indicated compounds for 16 hours and subjected to isPLA using pairs of MYC and MAX and of FRA1 and JUN antibodies, respectively. As negative control, primary antibody pairs but only one oligo-conjugated secondary antibody was used. B) Quantification of MYC:MAX and C) FRA1:JUN isPLA, representing an average number of nuclear dots per cell from three microscopic fields normalized to corresponding values for DMSO-treated cells. […] 1st-4th lanes from top; coimmunoprecipitated MAX, immunoprecipitated MYC, total levels of MAX and ACTIN, respectively, as determined by western blot analysis. E) MYC:MAX GLuc assay in cells. […] 24 hours later cells were treated with […] of Example 1, Example 2 and control compound for 16 hours and thereafter analyzed in a dual luciferase assay. The ratio of Gaussia/Firefly luciferase luminescence were calculated and normalized to DMSO-treated cells.
Identification of endogenous protein-protein interactions in fixed cells and has been described (Soderberg, O. et al., Nat Methods, 3, 995-1000 (2006)). […] Endogenous MYC:MAX or FRA-1:JUN protein interactions were visualized by fluorescence microscopy as fluorescent dots mainly localized in the cell nucleus. […]

The target in test [2] is T2, MAX bHLHZip (Homo sapiens, UniProt P61244).
T2 construct: Recombinant MYC bHLHZip and MAX bHLHZip proteins were titrated
T2 sequence (P61244 22-102): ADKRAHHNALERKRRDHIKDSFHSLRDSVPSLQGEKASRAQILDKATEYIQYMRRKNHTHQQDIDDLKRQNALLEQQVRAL
The test can be described thus: Assay 2A MST assay with MAX. The test is classed as binding. The settings on record: compound fixed at 3 μM, MAX titrated, highest concentration tested 15 μM. The procedure:
FIG. 2: A) MST assay of Example 1 effect on MYC and MAX, respectively. Recombinant MYC bHLHZip and MAX bHLHZip proteins were titrated, respectively, in a fixed concentration (3 μM) of Example 1. Changes in fluorescence were measured and normalized to control (buffer). Data are shown as mean±standard deviation of 6-8 biological repeats. B) MST assay of MYC (reverse MST). A fixed concentration of 200 nM labeled MYC was mixed with different concentrations of Example 1 as indicated. Data are shown as mean±standard deviation of 5 biological repeats. C) MST assay of Example 2 effect on MYC. D) MST assay of MYC with a control compound (non-binder).
The MYC MST assay was performed as described above (Biological example 1—Assay 1A), except that the fluorescent molecule was either protein or Example 1. The example compound was kept at a fix concentration of 3 μM in PBS supplemented with 0.05% Tween-20, while MYCbHLHZip or MAX was titrated. The migration of example compound changed at MYC protein concentrations above 1 μM, but was unaffected with MAX up to highest concentration tested (15 μM) (FIG. 2A). In a reverse experiment, Example 1 was titrated in a fixed protein concentration in PBS supplemented with 0.05% Tween-20 and 1% DMSO as described above after labelling primary amines of the protein using the Protein labelling kit GREEN-NHS (NanoTemper) according to manufacturer's protocol. […]

The subject of test [3] is MYC-ER driven transcription of ODC1, RSG16, CR2 in U2OS-MYC-ER cells. The test can be described thus: Assay 4 MYC target gene expression (RT-qPCR). The test is classed as cell-based. Here is the method:
FIG. 5: A) Inhibition of MYC transactivation of target genes (A) ODC1, (B) RSG16, and (C) CR2 as determined by RT-qPCR analysis, based on three biological experiments with three technical repeats each. U2OS-MYC-ER cells were treated with or without 100 nM 4-hydroxy-tamoxifen (HOT) for 4 hours, after which DMSO or Example 1 was added for 24 hours before total RNA was extraction. Fold changes in mRNA expression are presented relative to DMSO in non-HOT-treated cells after normalization to GAPDH, used as reference gene. Assay 4: Gene Expression To investigate the effect of the compounds on MYC-driven transcription, we utilized U2OS cells containing a MYC-estrogen receptor (MYC-ER) fusion protein, the activity of which is regulated by the ligand 4-hydroxytamoxifen (HOT). RT-qPCR was performed essentially as described in Bahram, F. et al. Interferon-gamma-induced p27KIP1 binds to and targets MYC for proteasome-mediated degradation. Oncotarget 7, 2837-2854, doi:10.18632/oncotarget.6693 (2016).

T1 sequence (P15407 whole entry): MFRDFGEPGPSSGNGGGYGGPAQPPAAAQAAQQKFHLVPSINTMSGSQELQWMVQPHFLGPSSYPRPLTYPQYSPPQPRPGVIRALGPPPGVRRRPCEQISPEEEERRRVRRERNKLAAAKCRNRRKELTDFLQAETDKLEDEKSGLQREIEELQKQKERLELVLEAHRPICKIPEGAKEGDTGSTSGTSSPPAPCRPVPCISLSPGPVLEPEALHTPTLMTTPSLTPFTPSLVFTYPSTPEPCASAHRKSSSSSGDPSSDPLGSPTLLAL
T1 sequence (P05412 whole entry): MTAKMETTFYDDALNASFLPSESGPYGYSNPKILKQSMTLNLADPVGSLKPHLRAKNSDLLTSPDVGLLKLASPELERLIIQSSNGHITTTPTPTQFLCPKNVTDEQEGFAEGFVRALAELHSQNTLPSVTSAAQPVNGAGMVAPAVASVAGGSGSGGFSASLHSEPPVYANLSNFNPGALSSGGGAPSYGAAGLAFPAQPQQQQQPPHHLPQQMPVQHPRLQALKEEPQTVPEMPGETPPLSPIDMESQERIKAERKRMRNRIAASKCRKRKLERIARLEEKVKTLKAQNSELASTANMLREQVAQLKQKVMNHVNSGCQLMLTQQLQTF

Consider `CCOc1ccc2nc3cc(/N=N/c4ccc(N)nc4N)ccc3c(N)c2c1` [Example 1, 3-((9-amino-7-ethoxyacridin-3-yl)diazenyl)pyridine-2,6-diamine sulphate hydrate], for which the “effect on FRA1:JUN interaction (isPLA)” value in test [1] was “not affecting”. In addition, the “Effect on thermophoresis (MAX protein concentration)” value in test [2] was above 15 µM. Besides, in test [3] (10 μM), the “inhibition of gene expression, CR2 gene” value was 100%; the “inhibition of gene expression, ODC1 gene” value worked out at 100%; the “inhibition of gene expression, RSG16 gene” value came to 68%. The “HOT-induced expression of all three MYC target genes” value in test [3] (24 hours) is listed as “significantly reduced”.

These data come from US11896589B2, “Diazinyl amino acridines and medical uses thereof” (MyCural Therapeutics AB, priority 2018, dated 2024).
